# Measured values published in US20220387365A1, “TUCARESOL DERIVATIVES AND USES THEREOF” (BeyondSpring Pharmaceuticals, Inc., priority 2019, published 2022).
# Values joined by “and” are separate entries in the source; they are usually repeats but may differ in a detail not shown here. Equal values may be shown once. Read-outs that look alike come from different tables or passages of the source. Marks after values point to notes of the source that are not given here.
# Key:
# [1] = Pharmacokinetics of tucaresol after a single dose in healthy subjects
# [2] = Intravenous and oral dosing pharmacokinetic screen, plasma concentration by LC/MS/MS; parameters: species or system C57BL/6 mice; conditions: male, C57BL/6, mouse, in vivo
# Procedure: Tucaresol, Compound B02, Compound C01, Compound C02-1, and Compound C02 were dosed once, by IV bolus (3 mg/kg in 20% hydroxyprophyl-13-cyclodextrin with 1 eq NaOH) or PO (10 mg/kg in 1% carboxymethylcellulose/0.1% tween-80 in water), to non-fasted male C57BL/6 mice. Animals were bled from the dorsal metatarsal vein (from the heart for 24 hour time point) for K2-EDTA plasma 0.083 (for IV only), 0.25, 0.5, 1, 2, 4, 8, and 24 hours after dosing. The plasma concentration of the dosed tucaresol or compound were measured by LC/MS/MS (I-CMS-8060 instrument for MS). PK parameters were then calculated with WinNonlin 6.1. For Compounds C01, CO2 and CO2-1, stability in C57BL/6 K2EDTA plasma was also evaluated at 22° C. over 1 hour by utilizing LC.
# [3] = plasma, single dose 400 mg, single subjects
# [4] = plasma, single dose 800 mg, single subjects
# [5] = plasma, single dose 1200 mg, single subjects
# [6] = plasma, single dose 2000 mg, single subjects
# [7] = plasma, single dose 2800 mg, single subjects
# [8] = plasma, single dose 3600 mg, single subjects
# [9] = iv, 3 mg/kg, Tucaresol concentration
# [10] = iv, 3 mg/kg, Tucaresol concentration, Mean
# [11] = po, 10 mg/kg, Tucaresol concentration
# [12] = po, 10 mg/kg, Tucaresol concentration, Mean
smiles,measurement,setting,value
O=Cc1c(O)cccc1OCc1ccc(C(=O)O)cc1 [Tucaresol],half-life,"[1]; human, in vivo, 2000 mg",222 h
same,Tmax,"[1]; human, in vivo, 2800 mg",7.5 h
same,half-life,"[1]; human, in vivo, 2800 mg",223 h
same,Cmax,"[1]; human, plasma, 200 mg, Cmax, single dose 200 mg, single subjects",9900 ng/mL
same,Tmax,"[1]; human, plasma, 200 mg, tmax, single dose 200 mg, single subjects",5 h
same,AUC,"[1]; human, plasma, 400 mg, AUC, single dose 400 mg, single subjects",2830 µg·h/mL
same,Cmax,"[1]; human, plasma, 400 mg, Cmax, single dose 400 mg, single subjects",16600 ng/mL
same,half-life,"[1]; human, plasma, 400 mg, t1/2,z, single dose 400 mg, single subjects",133 h
same,Tmax,"[1]; human, plasma, 400 mg, tmax, single dose 400 mg, single subjects",4.03 h
same,AUC,"[1]; human, plasma, 800 mg, AUC, single dose 800 mg, single subjects",4890 µg·h/mL
same,Cmax,"[1]; human, plasma, 800 mg, Cmax, single dose 800 mg, single subjects",28300 ng/mL
same,half-life,"[1]; human, plasma, 800 mg, t1/2,z, single dose 800 mg, single subjects",134 h
same,Tmax,"[1]; human, plasma, 800 mg, tmax, single dose 800 mg, single subjects",4 h
same,AUC,"[1]; human, plasma, 1200 mg, AUC, Mean, single dose 1200 mg",8860 µg·h/mL
same,Cmax,"[1]; human, plasma, 1200 mg, Cmax, Mean, single dose 1200 mg",38400 ng/mL
same,Cmax,"[1]; human, plasma, 1200 mg, Cmax, single dose 1200 mg, single subjects",40400 ng/mL
same,half-life,"[1]; human, plasma, 1200 mg, t1/2,z, Mean, single dose 1200 mg",195 h
same,Tmax,"[1]; human, plasma, 1200 mg, tmax, Mean, single dose 1200 mg",6.5 h
same,Tmax,"[1]; human, plasma, 1200 mg, tmax, single dose 1200 mg, single subjects",8 h
same,AUC,"[1]; human, plasma, 2000 mg, AUC, Mean, single dose 2000 mg",14800 µg·h/mL
same,AUC,"[1]; human, plasma, 2000 mg, AUC, single dose 2000 mg, single subjects",16300 µg·h/mL
same,Cmax,"[1]; human, plasma, 2000 mg, Cmax, Mean, single dose 2000 mg",58600 ng/mL
same,Cmax,"[1]; human, plasma, 2000 mg, Cmax, single dose 2000 mg, single subjects",60800 ng/mL
same,half-life,"[1]; human, plasma, 2000 mg, t1/2,z, Mean, single dose 2000 mg",229 h
same,half-life,"[1]; human, plasma, 2000 mg, t1/2,z, single dose 2000 mg, single subjects",278 h
same,Tmax,"[1]; human, plasma, 2000 mg, tmax, Mean, single dose 2000 mg",5.5 h
same,Tmax,"[1]; human, plasma, 2000 mg, tmax, single dose 2000 mg, single subjects",6 h
same,AUC,"[1]; human, plasma, 2800 mg, AUC, Mean, single dose 2800 mg",16900 µg·h/mL
same,AUC,"[1]; human, plasma, 2800 mg, AUC, single dose 2800 mg, single subjects",12900 µg·h/mL
same,Cmax,"[1]; human, plasma, 2800 mg, Cmax, Mean, single dose 2800 mg",73700 ng/mL
same,Cmax,"[1]; human, plasma, 2800 mg, Cmax, single dose 2800 mg, single subjects",56600 ng/mL
same,half-life,"[1]; human, plasma, 2800 mg, t1/2,z, single dose 2800 mg, single subjects",232 h
same,Tmax,"[1]; human, plasma, 2800 mg, tmax, single dose 2800 mg, single subjects",6 h
same,AUC,"[1]; human, plasma, 3600 mg, AUC, Mean, single dose 3600 mg",26600 µg·h/mL
same,AUC,"[1]; human, plasma, 3600 mg, AUC, single dose 3600 mg, single subjects",25400 µg·h/mL
same,Cmax,"[1]; human, plasma, 3600 mg, Cmax, Mean, single dose 3600 mg",95800 ng/mL
same,Cmax,"[1]; human, plasma, 3600 mg, Cmax, single dose 3600 mg, single subjects",81700 ng/mL
same,half-life,"[1]; human, plasma, 3600 mg, t1/2,z, Mean, single dose 3600 mg",289 h
same,half-life,"[1]; human, plasma, 3600 mg, t1/2,z, single dose 3600 mg, single subjects",291 h
same,Tmax,"[1]; human, plasma, 3600 mg, tmax, Mean, single dose 3600 mg",10 h
same,Tmax,"[1]; human, plasma, 3600 mg, tmax, single dose 3600 mg, single subjects",6.08 h
same,Cmax,"[1]; plasma, single dose 200 mg, single subjects",11100 ng/mL
same,AUC,[1]; [3],3562 µg·h/mL
same,CL0,[1]; [3],2.35 mL/min and 1.86 mL/min
same,Cmax,[1]; [3],19600 ng/mL
same,Tmax,[1]; [3],3.00 h
same,"t1/2,z",[1]; [3],190 h
same,AUC,[1]; [4],5759 µg·h/mL
same,CL0,[1]; [4],2.72 mL/min and 2.31 mL/min
same,Cmax,[1]; [4],36500 ng/mL
same,Tmax,[1]; [4],4.08 h
same,"t1/2,z",[1]; [4],126 h
same,"CL0, Mean","[1]; plasma, single dose 1200 mg",2.40 mL/min
same,AUC,[1]; [5],12103 µg·h/mL and 9180 µg·h/mL and 5987 µg·h/mL and 8161 µg·h/mL
same,CL0,[1]; [5],1.65 mL/min and 2.17 mL/min and 3.33 mL/min and 2.44 mL/min
same,Cmax,[1]; [5],40100 ng/mL and 39300 ng/mL and 33700 ng/mL
same,"t1/2,z",[1]; [5],252 h and 192 h and 123 h and 215 h
same,"CL0, Mean","[1]; plasma, single dose 2000 mg",2.27 mL/min
same,AUC,[1]; [6],16487 µg·h/mL and 14010 µg·h/mL and 12455 µg·h/mL
same,CL0,[1]; [6],2.04 mL/min and 2.01 mL/min and 2.37 mL/min and 2.67 mL/min
same,Cmax,[1]; [6],59300 ng/mL and 57100 ng/mL
same,"t1/2,z",[1]; [6],207 h and 209 h
same,"CL0, Mean","[1]; plasma, single dose 2800 mg",2.85 mL/min
same,AUC,[1]; [7],20871 µg·h/mL and 15635 µg·h/mL and 18018 µg·h/mL
same,CL0,[1]; [7],3.61 mL/min and 2.23 mL/min and 2.97 mL/min and 2.58 mL/min
same,Cmax,[1]; [7],87700 ng/mL and 91400 ng/mL and 59300 ng/mL
same,Tmax,[1]; [7],12.00 h
same,"t1/2,z",[1]; [7],240 h and 178 h and 241 h
same,"CL0, Mean","[1]; plasma, single dose 3600 mg",2.26 mL/min
same,AUC,[1]; [8],27818 µg·h/mL and 24131 µg·h/mL and 29116 µg·h/mL
same,CL0,[1]; [8],2.36 mL/min and 2.15 mL/min and 2.48 mL/min and 2.05 mL/min
same,Cmax,[1]; [8],86300 ng/mL and 80300 ng/mL and 134700 ng/mL
same,"t1/2,z",[1]; [8],329 h and 265 h and 268 h
same,AUClast/D,[2],825 ng·h/mL per mg/kg
same,F,[2],75.0%
same,T1/2,[2],4.67 h
same,Tmax,[2],0.250 h
same,concentration at 0.083 h,[2]; [9],1360 ng/mL
same,concentration at 0.25 h,[2]; [9],1240 ng/mL
same,concentration at 0.5 h,[2]; [9],972 ng/mL
same,concentration at 1 h,[2]; [9],623 ng/mL
same,concentration at 2 h,[2]; [9],473 ng/mL
same,concentration at 4 h,[2]; [9],122 ng/mL
same,concentration at 8 h,[2]; [9],73.6 ng/mL
same,concentration at 24 h,[2]; [9],12 ng/mL
same,concentration at 0.083 h,[2]; [10],1890 ng/mL
same,concentration at 0.25 h,[2]; [10],1330 ng/mL
same,concentration at 0.5 h,[2]; [10],985 ng/mL
same,concentration at 1 h,[2]; [10],707 ng/mL
same,concentration at 2 h,[2]; [10],421 ng/mL
same,concentration at 4 h,[2]; [10],115 ng/mL
same,concentration at 8 h,[2]; [10],73.4 ng/mL
same,concentration at 24 h,[2]; [10],9.5 ng/mL
same,Tucaresol concentration,"[2]; po, 10 mg/kg, 8 h",164* ng/mL
same,concentration at 0.25 h,[2]; [11],2930 ng/mL
same,concentration at 0.5 h,[2]; [11],2770 ng/mL
same,concentration at 1 h,[2]; [11],1870 ng/mL
same,concentration at 2 h,[2]; [11],822 ng/mL
same,concentration at 4 h,[2]; [11],603 ng/mL
same,concentration at 8 h,[2]; [11],185 ng/mL
same,concentration at 24 h,[2]; [11],26.3 ng/mL
same,concentration at 0.25 h,[2]; [12],3040 ng/mL
same,concentration at 0.5 h,[2]; [12],2410 ng/mL
same,concentration at 1 h,[2]; [12],1750 ng/mL
same,concentration at 2 h,[2]; [12],881 ng/mL
same,concentration at 4 h,[2]; [12],614 ng/mL
same,concentration at 8 h,[2]; [12],190 ng/mL
same,concentration at 24 h,[2]; [12],26 ng/mL
same,concentration at 8 h,"[2]; Tucaresol PO 10 mg/kg, 8 h, single mice, read-out: Tucaresol concentration",222 ng/mL
